Laboratory results reported in publication PMC11773334, “Preparation and pharmacokinetic evaluation of a sertraline-methylpropyphenazone prodrug: a comparative metabolic study on the plasma and brain tissues of rats using LC-MS/MS analysis” (RSC Advances, 2025).

Key:
[1] = Rat plasma pharmacokinetics after oral administration (LC-MS/MS, noncompartmental model)
Protocol: Sildenafil was used as an internal standard (IS). […] The MS conditions were set as follows: the ESI temperature was 330 °C, nitrogen gas flow rate was 11 L min^−1, nebulizer pressure was 35 psi, and capillary voltage was 4000 V. The MS settings were optimized for each compound, including the fragmentor voltage, dwell time (sec), and collision energy voltage. […] A gradient elution program was applied using a mobile phase composed of methanol (solvent A) and 0.7 g L^−1 ammonium acetate trihydrate in water with 0.1% formic acid (solvent B). […] The mobile phase was pumped at a flow rate of 0.4 mL min^−1. The equilibration duration was 7.0 min. The sample injection volume was 5 μL. The total running time for the analysis was 20 min. […] The SPE column was conditioned with 1 mL methanol and 2 mL of 0.1% aqueous ammonia solution. […] The SPE column was gently clicked to mix the solution, then allowed to elute just below the stationary phase surface before being trapped for 1 min in the stationary phase. The column was then washed with 1 mL of 0.1% ammonia solution, forcing nitrogen to eject water from the SPE column. The column was connected to a new port via a clean test tube, and the analytes were eluted using 3 mL ethyl acetate: n-hexane (2 : 1, v/v) and 1 mL methanol. […] The residue was dissolved in 50 μL methanol, and a 5 μL volume was injected for LC-MS/MS analysis. […] The results were expressed as the mean ± SD. The evaluated parameters included Cmax (maximum concentration), Tmax (time to reach Cmax), t1/2 (half-life), Ke (elimination rate constant), AUC (area under the concentration–time curve), AUMC (area under the first moment curve), and MRT (mean residence time). The data were analyzed using Kinetica® software, employing a noncompartmental analysis approach. […] The pharmacokinetic parameters between the groups were compared using an unpaired two-tailed t-test. Statistical significance was defined as P < 0.05.

[2] = Stability of standard solutions under storage conditions; format: physicochemical; details: room temperature for 6 h and 4 °C for 12 h
Protocol: (§1) The linearity of the targeted analytes was evaluated at six concentration levels spanning the range of 25–2000 ng mL^−1, and the calibration parameters were calculated. The method's accuracy was determined by calculating the estimated value for each QC sample compared with the actual concentration. The precision was assessed by analysis of QC samples at different concentrations (25.0, 500.0, and 2000.0 ng mL^−1) on separate days. The lowest point in the calibration curve was defined as the lower limit of quantification (LLOQ), which was determined to be at an acceptable accuracy and precision. The recovery of the extractions was evaluated by comparing the areas under the peak of the extracted samples with a non-extracted standard solution. Also, the matrix effect was evaluated by comparing the plasma sample spiked with the analyte with corresponding standard solutions at the same concentrations. Finally, the stability of the sample was investigated at three concentration levels, applying the same chromatographic conditions. The stability tests included long-term, short-term, and freeze-thaw stability.
Standard solutions were maintained at room temperature for 6 h and 4 °C for 12 h, and then analyzed using the developed method. […] Recoveries remained above 89%, and the standard deviation (SD%) values were below 3%, as detailed in Table 3.

[3] = QC sample stability in spiked rat plasma; format: in vitro ADME
Protocol: The working solutions were prepared separately for obtaining a 100 μg mL^−1 concentration. Calibration standards were generated from the working solution by spiking control plasma (100 μL) with a standard mixture to get the final concentrations: 25, 100, 250, 500, 1000, and 2000 ng mL^−1 plasma of each analyte. […]
Solid-phase extraction (SPE) was performed on the calibration standards prepared in plasma, quality control (QC) samples, rat plasma, and brain homogenate samples using Chromabond ® C8-100 mg columns (Macherey Nagel, Düren, Germany). […] The SPE column was filled with 25 μL of 0.1% aqueous ammonia solution, 100 μL plasma or brain homogenate, and 50 μL IS (20 ng μL^−1). […] The eluant was dried with nitrogen gas at room temperature, then reconstituted in 300 μL methanol, vortex, and transferred to a 0.9 mL total recovery autosampler vial, and dried with nitrogen gas.
as §1

[4] = Concentration in rat brain homogenate after oral administration (LC-MS/MS); format: in vivo, Wistar rats; details: 0.5 to 192 h after oral SER-MP
Protocol: Sildenafil was used as an internal standard (IS). […] The gradient program was configured as follows: 68% A from 0 to 2 min, raised to 96% A at 4.0 min, sustained at 96% A until 13 min, and then reverting back to 68% A at 13.1 min. […] The equilibration duration was 7.0 min. The sample injection volume was 5 μL.

rat serotonin (ST) = experiment: Analysis of serotonin in brain homogenate (ELISA sandwich kit); details: SER: within 1 to 3 h after oral administration, Fig. 6
Protocol: Wistar rats weighing 250 ± 30 g were included in the study. […] Phosphate-buffered saline (PBS) was utilized as a matrix to homogenize the brain samples. Both the brain and blood samples were frozen at −80 °C until their analysis.
An enzyme-linked immunosorbent assay (ELISA) sandwich kit was used in this study as it is known that it can accurately quantify rat serotonin (ST) in serum, plasma, cell culture supernatants, ascites, tissue homogenates, and other biological fluids. In the assay, first the plate was pre-coated with a rat ST antibody. When ST is present in the sample, it binds to the antibodies on the wells. Next, a biotinylated rat ST antibody was added, which binds to the ST in the sample. Streptavidin-HRP was then added, binding to the biotinylated ST antibody. After incubation, the unbound Streptavidin-HRP was washed away. […] The reaction was terminated by adding an acidic stop solution, and then the absorbance was measured at 450 nm.

[5] = cited from earlier work
[6] = rat plasma, oral SER-MP 16.0 mg kg^−1 (equimolar to SER dose), analyte SER-MP or released metabolite

SMILES | Average recovery (%) ± SD, Autosampler (25 °C/24 h) ([3]; 50.0 ng mL^−1) [%] | Average recovery (%) ± SD, Freeze-thaw (−20 °C/3 cycles) ([3]; 50.0 ng mL^−1) [%] | Average recovery (%) ± SD, Autosampler (25 °C/24 h) ([3]; 500.0 ng mL^−1) [%] | Average recovery (%) ± SD, Freeze-thaw (−20 °C/3 cycles) ([3]; 500.0 ng mL^−1) [%] | Average recovery (%) ± SD, Autosampler (25 °C/24 h) ([3]; 2000.0 ng mL^−1) [%] | Average recovery (%) ± SD, Freeze-thaw (−20 °C/3 cycles) ([3]; 2000.0 ng mL^−1) [%] | Stability of standard solutions (change in peak area) [2] | also measured
CC(C)c1c(CN(C)C2CCC(c3ccc(Cl)c(Cl)c3)c3ccccc32)n(C)n(-c2ccccc2)c1=O (stereo not shown) [SER-MP, sertraline-methylpropyphenazone] | 97.45 ± 0.78 | 95.70 ± 1.76 | 98.76 ± 1.03 | 96.84 ± 0.68 | 98.88 ± 0.80 | 94.99 ± 2.09 | No significant changes in peak area values | half-life ([1]; Wistar, rat, plasma, po, 16 mg kg^−1, t1/2 (half-life), rat plasma, oral SER-MP 16.0 mg kg^−1 (equimolar to SER dose), analyte SER-MP or released metabolite): 3000 min; Cmax ([1]; Wistar, rat, plasma, po, 16 mg/kg, Cmax (maximum plasma concentration), rat plasma, oral SER-MP 16.0 mg kg^−1 (equimolar to SER dose), analyte SER-MP or released metabolite): 192 ng/mL; Cmax (maximum plasma concentration) [1, 6]: 192.11 ng/mL; Total clearance rate [1, 6]: 4.32 mL/day/kg; t1/2 (half-life) [1, 6]: 49.97 h; Concentration of SER-MP in rat brain [4]: ~100 ng/g; Course of serotonin level in the brain after a single oral dose (rat serotonin (ST)): approximately steady level
CC(C)c1c(CO)n(C)n(-c2ccccc2)c1=O [3-OHMP, 3-hydroxymethylpropyphenazone] | 96.80 ± 0.98 | 94.39 ± 2.98 | 96.55 ± 1.20 | 95.47 ± 1.57 | 95.24 ± 2.56 | 95.73 ± 1.93 |  | 
CC(C)c1c(CN[C@H]2CC[C@@H](c3ccc(Cl)c(Cl)c3)c3ccccc32)n(C)n(-c2ccccc2)c1=O [nor-methyl-SER-MP] |  |  |  |  |  |  |  | Time retained in the plasma ([1]; rat plasma after oral SER-MP, major metabolite): 195 h
CN[C@H]1CC[C@@H](c2ccc(Cl)c(Cl)c2)c2ccccc21 [SER, (1S,4S)-4-(3,4-dichlorophenyl)-N-methyl-1,2,3,4-tetrahydronaphthalen-1-amine] | 92.98 ± 1.35 | 91.04 ± 2.95 | 93.23 ± 0.98 | 90.68 ± 3.92 | 91.15 ± 2.20 | 89.23 ± 4.00 | No significant changes in peak area values | Fraction excreted as metabolites [5]: About 40%; Fraction in plasma bound to proteins [5]: About 98%
N[C@H]1CC[C@@H](c2ccc(Cl)c(Cl)c2)c2ccccc21 [N-desmethyl-SER, N-Desmethyl-sertraline] |  |  |  |  |  |  |  | Half-life (t1/2) ([5]; in vivo): 66 to 80 h
